Measured values published in PubChem BioAssay AID1963860 (Molecular Pharmacology Branch, DTP, NCI, 2024).

System: CN0375-F725-PDC KRAS spheroid viability
Assay: Anticancer human tumor CN0375-F725-PDC patient-derived colon carcinoma cell line growth inhibition [KRAS2]
Settings: spheroids with HUVEC and MSC; for IC50: curve of first compound; for viability, T/C: stronger effect = lower value
Method in brief: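 KRAS-mutant tumor cells were grown as spheroids with HUVEC endothelial cells and human MSCs as stroma. Targeted agents were tested alone and with KRAS pathway inhibitors. Doses started at or near clinical Cmax, or 10 microM, descending half-log.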

[1] = second compound 0.1 µM, first compound 0.0316 µM
[2] = second compound 0.1 µM, first compound 0.1 µM
[3] = second compound 0.1 µM, first compound 0.316 µM
[4] = second compound 0.1 µM, first compound 1 µM
[5] = second compound 0.1 µM, first compound 3.16 µM
[6] = second compound 0.1 µM, first compound 10 µM
[7] = second compound 0.316 µM, first compound 0.0316 µM
[8] = second compound 0.316 µM, first compound 0.1 µM
[9] = second compound 0.316 µM, first compound 0.316 µM
[10] = second compound 0.316 µM, first compound 1 µM
[11] = second compound 0.316 µM, first compound 3.16 µM
[12] = second compound 0.316 µM, first compound 10 µM
[13] = second compound 1 µM, first compound 0.0316 µM
[14] = second compound 1 µM, first compound 0.1 µM
[15] = second compound 1 µM, first compound 0.316 µM
[16] = second compound 1 µM, first compound 1 µM
[17] = second compound 1 µM, first compound 3.16 µM
[18] = second compound 1 µM, first compound 10 µM
[19] = second compound 3.16 µM, first compound 0.0316 µM
[20] = second compound 3.16 µM, first compound 0.1 µM
[21] = second compound 3.16 µM, first compound 0.316 µM
[22] = second compound 3.16 µM, first compound 1 µM
[23] = second compound 3.16 µM, first compound 3.16 µM
[24] = second compound 3.16 µM, first compound 10 µM
[25] = second compound 10 µM, first compound 0.0316 µM
[26] = second compound 10 µM, first compound 0.1 µM
[27] = second compound 10 µM, first compound 0.316 µM
[28] = second compound 10 µM, first compound 1 µM
[29] = second compound 10 µM, first compound 3.16 µM
[30] = second compound 10 µM, first compound 10 µM
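Also: spheroids exposed to agents for 7 days.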

| SMILES | IC50 (second compound 0.1 µM) [µM] | IC50 (second compound 0.316 µM) [µM] | IC50 (second compound 1 µM) [µM] | IC50 (second compound 3.16 µM) [µM] | IC50 (second compound 10 µM) [µM] | viability, T/C [1] [%] | viability, T/C [2] [%] | viability, T/C [3] [%] | viability, T/C [4] [%] | viability, T/C [5] [%] | viability, T/C [6] [%] | viability, T/C [7] [%] | viability, T/C [8] [%] | viability, T/C [9] [%] | viability, T/C [13] [%] | viability, T/C [14] [%] | viability, T/C [19] [%] | viability, T/C [20] [%] | viability, T/C [25] [%] | viability, T/C [26] [%] | further results |
| --- | --- | --- | --- | --- | --- | --- | --- | --- | --- | --- | --- | --- | --- | --- | --- | --- | --- | --- | --- | --- | --- |
| COc1cc(Nc2ncc3c(n2)-c2ccc(Cl)cc2C(c2c(F)cccc2OC)=NC3)ccc1C(=O)O + COc1cc2nc(C)nc(NC(C)c3cc(N)cc(C(F)(F)F)c3)c2cc1OC1CCOC1 | > 10 | > 10 | > 10 | > 10 | < 0.0316 | 95.9 | 93.2 | 88.8 | 88.2 | 87.3 | 71.8 | 97 | 97.6 | 90.5 | 91.7 | 95.6 | 84.8 | 88.3 | 27.6 | 15.6 | viability, T/C [10]: 87.8%; viability, T/C [11]: 83.1%; viability, T/C [12]: 71.8%; viability, T/C [15]: 89.8%; viability, T/C [16]: 85.1%; viability, T/C [17]: 83.9%; viability, T/C [18]: 69.4%; viability, T/C [21]: 72.7%; viability, T/C [22]: 79%; viability, T/C [23]: 75.9%; viability, T/C [24]: 64.6%; viability, T/C [27]: 13.9%; viability, T/C [28]: 15.7%; viability, T/C [29]: 15.5%; viability, T/C [30]: 7.94% |
| COc1cc2nccc(Oc3ccc(NC(=O)C4(C(=O)Nc5ccc(F)cc5)CC4)cc3)c2cc1OC + COc1cc2nc(C)nc(NC(C)c3cc(N)cc(C(F)(F)F)c3)c2cc1OC1CCOC1 | > 10 | 6.74 | 3.8 | 1.04 | < 0.0316 | 102 | 99.5 | 89.8 | 79.3 | 56.6 | 59.6 | 100 | 96.6 | 90.2 | 88.4 | 91.6 | 76.2 | 81.6 | 15.8 | 4.08 | viability, T/C [10]: 74.8%; viability, T/C [11]: 52.6%; viability, T/C [12]: 48.7%; viability, T/C [15]: 83.8%; viability, T/C [16]: 75%; viability, T/C [17]: 50.3%; viability, T/C [18]: 44.2%; viability, T/C [21]: 70.4%; viability, T/C [22]: 52.4%; viability, T/C [23]: 16.7%; viability, T/C [24]: 9.46%; viability, T/C [27]: 7.08%; viability, T/C [28]: 16.8%; viability, T/C [29]: 0.92%; viability, T/C [30]: 0.22% |
| Cn1ncnc1[C@H]1c2n[nH]c(=O)c3cc(F)cc(c23)N[C@@H]1c1ccc(F)cc1 + COc1cc2nc(C)nc(NC(C)c3cc(N)cc(C(F)(F)F)c3)c2cc1OC1CCOC1 | > 0.1 | > 0.1 | > 0.1 | > 0.1 | < 0.000316 | 98 | 94.9 |  |  |  |  | 96.4 | 93.1 |  | 88.8 | 86.4 | 79.4 | 76.8 | 5.32 | 10.4 | viability, T/C (second compound 0.1 µM, first compound 0.000316 µM): 103%; viability, T/C (second compound 0.1 µM, first compound 0.001 µM): 98.8%; viability, T/C (second compound 0.1 µM, first compound 0.00316 µM): 96.7%; viability, T/C (second compound 0.1 µM, first compound 0.01 µM): 97.9%; viability, T/C (second compound 0.316 µM, first compound 0.000316 µM): 97.2%; viability, T/C (second compound 0.316 µM, first compound 0.001 µM): 104%; viability, T/C (second compound 0.316 µM, first compound 0.00316 µM): 94.2%; viability, T/C (second compound 0.316 µM, first compound 0.01 µM): 92.5%; viability, T/C (second compound 1 µM, first compound 0.000316 µM): 97.7%; viability, T/C (second compound 1 µM, first compound 0.001 µM): 105%; viability, T/C (second compound 1 µM, first compound 0.00316 µM): 86.9%; viability, T/C (second compound 1 µM, first compound 0.01 µM): 86.7%; viability, T/C (second compound 3.16 µM, first compound 0.000316 µM): 88.6%; viability, T/C (second compound 3.16 µM, first compound 0.001 µM): 94%; viability, T/C (second compound 3.16 µM, first compound 0.00316 µM): 84.1%; viability, T/C (second compound 3.16 µM, first compound 0.01 µM): 76.8%; viability, T/C (second compound 10 µM, first compound 0.000316 µM): 11.7%; viability, T/C (second compound 10 µM, first compound 0.001 µM): 14%; viability, T/C (second compound 10 µM, first compound 0.00316 µM): 6.8%; viability, T/C (second compound 10 µM, first compound 0.01 µM): 13.3% |
